Results from patent US20240165185A1, “COMBINATION OF A MYRTLE EXTRACT AND A TRIPTERYGIUM WILFORDII EXTRACT FOR COMBATING C. ACNES-INDUCED INFLAMMATION” (priority 2021, published 2024).

How the values were obtained:
Type in all cases: cell-based
[1] = tested on: production of IL-10 by dendritic cells derived from monocytes; assay: Inhibition of IL-10 production by monocyte-derived dendritic cells stimulated with biofilm of C. acnes; details: Homo sapiens, Dendritic cell; biofilm of C. acnes phylotype IA1, MOI close to 100, 24 hours stimulation; dexamethasone 300 ng/ml, combination 10 and 25 μg/ml; mean of 3 experiments
Method: (§1) The experiments were performed on co-cultures of immature dendritic cells derived from monocytes, at a final concentration of 1.10^5 cells/ml/well and biofilms or membranes of C. acnes of phylotype IA1 . The monocytes are purified from human blood by negative selection (The EasySep™ Human Monocyte Enrichment Kit, StemCell).
(§2) On Day 0, the monocytes are incubated in a differentiation medium (Gibco Roswell Park Memorial Institute (RPMI), 10% v/v foetal bovine serum (FBS) that has been decomplemented (heated to 56° C. for 30 minutes), 50 ng/ml IL-4 and 100 ng/ml Recombinant Human Granulocyte Macrophage Colony-Stimulating Factor (GM-CSF)). On the 3rd day of culture, half of the medium is replaced by fresh medium. On day 6, the immature dendritic cells are characterised by flow cytometry and stimulated by a biofilm or membranes of C. acnes.
The myrtle extract used in this study is prepared according to example 1. This extract is solubilised and stored at […] in ethanol (10 mg of dry extract prepared according to example 1, in 1 ml of ethanol). The concentration tested is 10 μg/ml.
The extract of Tripterygium wilfordii (Trip extract below) used in this study is prepared according to example 2.

[2] = tested on: production of IL-8 by dendritic cells derived from monocytes; assay: Inhibition of IL-8 production by monocyte-derived dendritic cells stimulated with C. acnes membranes; details: Homo sapiens, Dendritic cell; C. acnes phylotype IA1 membranes, 24 hours stimulation; dexamethasone 300 ng/ml, myrtle extract 10 μg/ml, Trip extract 25 μg/ml, combination 10 and 25 μg/ml; mean of 3 experiments
Method: as §1, §2
(§3) The membranes of C. acnes are purchased from the Icare laboratory (Saint-Beauzire, France).
The stimulation of the immature dendritic cells derived from monocytes by the membranes of C. acnes is carried out with a dilution to 1/20 of a solution of membranes in the culture medium (RPMI+10% v/v FBS) at a concentration of 0.15 mg/ml. […]
Several cytokines are evaluated in this study. IL-6, IL-8, IL-10, and IL-12p40; these cytokines are quantified in multiplex using the Luminex technology (Bioplex 200, Biorad).

[3] = tested on: production of IL-12p40 by dendritic cells derived from monocytes; assay: Inhibition of IL-12p40 production by monocyte-derived dendritic cells stimulated with C. acnes membranes; details: Homo sapiens, Dendritic cell; C. acnes phylotype IA1 membranes, 24 hours stimulation; dexamethasone 300 ng/ml, myrtle extract 10 μg/ml, Trip extract 25 μg/ml, combination 10 and 25 μg/ml; mean of 3 experiments
Method: as §1, §2, §3
(§4) The stimulation of the immature dendritic cells derived from monocytes by the membranes of C. acnes is carried out with a dilution to 1/20 of a solution of membranes in the culture medium (RPMI+10% v/v FBS) at a concentration of 0.15 mg/ml.
(§5) The myrtle extract used in this study is prepared according to example 1. This extract is solubilised and stored at […] in ethanol (10 mg of dry extract prepared according to example 1, in 1 ml of ethanol). […]

[4] = tested on: production of IL-10 by dendritic cells derived from monocytes; assay: Inhibition of IL-10 production by monocyte-derived dendritic cells stimulated with C. acnes membranes; details: Homo sapiens, Dendritic cell; C. acnes phylotype IA1 membranes, 24 hours stimulation; dexamethasone 300 ng/ml, myrtle extract 10 μg/ml, Trip extract 25 μg/ml, combination 10 and 25 μg/ml; mean of 3 experiments
Method: as §1, §2, §3, §4, §5

[5] = tested on: production of IL-6 by dendritic cells derived from monocytes; assay: Inhibition of IL-6 production by monocyte-derived dendritic cells stimulated with C. acnes membranes; details: Homo sapiens, Dendritic cell; C. acnes phylotype IA1 membranes, 24 hours stimulation; dexamethasone 300 ng/ml, myrtle extract 10 μg/ml, Trip extract 25 μg/ml, combination 10 and 25 μg/ml; mean of 3 experiments
Method: as §1, §2, §3, §4, §5

C[C@@H]1C[C@H]2[C@@H]3CCC4=CC(=O)C=C[C@]4(C)[C@@]3(F)[C@@H](O)C[C@]2(C)[C@@]1(O)C(=O)CO [Dexamethasone, dexamethasone]
inhibition at 0.3 µg/mL [1]: 38.6%
inhibition at 0.3 µg/mL [2]: 47.6%
inhibition at 0.3 µg/mL [3]: 79.5%
inhibition at 0.3 µg/mL [4]: 41.7%
inhibition at 0.3 µg/mL [5]: 76.8%
